The results in this text go back to patent US20130261130A1, “NEUROTRYPSIN INHIBITORS” (priority 2010, published 2013).

The target in this assay is T1, human neurotrypsin (Homo sapiens, UniProt P56730).
T1 sequence (P56730 21-875): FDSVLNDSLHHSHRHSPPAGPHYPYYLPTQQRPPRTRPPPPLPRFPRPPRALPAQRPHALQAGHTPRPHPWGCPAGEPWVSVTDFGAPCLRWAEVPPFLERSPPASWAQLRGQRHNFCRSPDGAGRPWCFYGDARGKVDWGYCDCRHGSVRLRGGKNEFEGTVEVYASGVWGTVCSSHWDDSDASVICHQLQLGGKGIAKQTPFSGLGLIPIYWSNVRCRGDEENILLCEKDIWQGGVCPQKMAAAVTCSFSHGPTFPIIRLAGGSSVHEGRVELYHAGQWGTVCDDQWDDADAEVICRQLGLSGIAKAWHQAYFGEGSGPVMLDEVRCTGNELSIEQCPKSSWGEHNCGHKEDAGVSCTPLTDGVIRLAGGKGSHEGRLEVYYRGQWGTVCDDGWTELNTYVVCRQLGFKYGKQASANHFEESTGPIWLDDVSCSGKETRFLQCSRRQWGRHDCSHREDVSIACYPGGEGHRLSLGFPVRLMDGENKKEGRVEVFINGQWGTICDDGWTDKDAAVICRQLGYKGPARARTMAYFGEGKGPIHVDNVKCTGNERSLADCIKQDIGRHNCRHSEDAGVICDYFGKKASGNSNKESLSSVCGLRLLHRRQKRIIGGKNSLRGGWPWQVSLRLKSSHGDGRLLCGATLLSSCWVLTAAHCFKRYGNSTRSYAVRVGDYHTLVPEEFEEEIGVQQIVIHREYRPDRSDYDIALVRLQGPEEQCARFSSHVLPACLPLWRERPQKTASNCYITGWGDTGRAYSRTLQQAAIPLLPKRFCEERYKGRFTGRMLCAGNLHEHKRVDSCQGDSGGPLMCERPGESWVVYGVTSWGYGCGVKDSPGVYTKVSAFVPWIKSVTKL
The experiment in a line: Determination of IC50 for human neurotrypsin. The note with it: human neurotrypsin; method of WO 2006/1103261; read-out: Neurotrypsin IC50. Format: biochemical. How it is done:
Assessment of the potency of compounds of examples 1-311 in inhibiting the enzymatic activity of human neurotrypsin was performed according to the method described in patent application WO 2006/1103261
Turning to `CC(Nc1ccc(C(=O)O)c(NC(=O)c2sc3ccccc3c2Cl)c1)c1ccc(Cl)cc1` (stereo not shown) [Example 290], the IC50 came out at 4.1 µM.

Regarding `CC(C)CN(CC(C)C)C(=O)c1ccc(NC(=O)c2ccc(-c3nc4cc(Cl)c(Cl)cc4[nH]3)c(O)c2)c(C(=O)O)c1` [Example 42, 2-(4-(5,6-Dichloro-1H-benzo[d]imidazol-2-yl)-3-hydroxybenzamido)-5-(diisobutylcarbamoyl)benzoic acid], the IC50 stood at 4.4 µM.

In the case of `O=C(O)c1cc(C(=O)N2CCC(Cc3ccc(Cl)cc3)CC2)ccc1NC(=O)c1sc2ccccc2c1Cl` [Example 118, 2-(3-Chlorobenzo[b]-thiophene-2-carboxamido)-5-(4-(4-chlorobenzyl)piperidine-1-carbonyl)benzoic acid], the IC50 worked out at 2.2 µM.

With `O=C(Nc1ccc(Oc2cccnc2)cc1)c1ccc(C(=O)O)c(NC(=O)c2sc3ccccc3c2Cl)c1` [Example 84], the IC50 came to 4.8 µM.

Regarding `O=C(O)c1ccc(NCc2ccc(Cl)cc2)cc1NC(=O)c1sc2ccccc2c1Cl` [Example 280, 2-(3-Chlorobenzo[b]thiophene-2-carboxamido)-4-(4-chlorobenzylamino)-benzoic acid], the IC50 was found to be 5 µM.

For `O=C(NC1CCCc2ccccc21)c1ccc(NC(=O)c2ccc(-c3ccc(Cl)cc3)s2)c(C(=O)O)c1` (stereo not shown) [Example 112], the 50% inhibitory concentration (IC50) was determined as 5 µM.

With “2-(6-Chlorobenzo[b]-thiophene-2-carboxamido)-5-((5-chlorothiophen-2-yl-methyl)carbamoyl)benzoic acid [Example 107]”, the IC50 came out at 4.8 µM.

For the molecule `N#Cc1ccc(-c2ccc(C(=O)O)c(NC(=O)c3ccc(-c4nc5cc(Cl)c(Cl)cc5[nH]4)cc3)c2)cc1` [Example 267], the IC50 was found to be 0.5 µM.

Turning to `O=C(Nc1ccc(Cl)cc1)c1ccc(C(=O)O)c(NC(=O)c2ccc(-c3ccccc3)s2)c1` [Example 9, 4-(4-Chlorophenyl-carbamoyl)-2-(5-phenyl-thiophene-2-carboxamido)-benzoic acid], the IC50 came to 25.7 µM.

For the molecule `O=C(Nc1ccc(Sc2ccc(Cl)cc2)cc1C(=O)O)c1ccc(-c2ccc(Cl)cc2)s1` [Example 293], the IC50 came out at 8.7 µM.

With `O=C(O)c1ccc(C(=O)N2CCC(O)(c3ccc(Cl)cc3)CC2)cc1NC(=O)c1sc2ccccc2c1Cl` [Example 99], the IC50 worked out at 6.9 µM.

In the case of “N-(5-(5-Chloro-1,3-thiazol-2-ylcarbamoyl)-2-(2H-tetrazol-5-yl)phenyl)-5-phenyl-thiophene-2-carboxamide [Example 228]”, the IC50 is 6.6 µM.

`O=C(Nc1ccc(Cl)cc1)c1cc(NC(=O)c2sc3ccccc3c2Cl)c(C(=O)O)cc1O` [Example 303]: the concentration for half-maximal inhibition (IC50) was 5.5 µM.

With `O=C(NC1CCCc2ccccc21)c1ccc(C(=O)O)c(NC(=O)c2sc3ccccc3c2Cl)c1` (stereo not shown) [Example 32, 2-(3-Chlorobenzo[b]-thiophene-2-carboxamido)-4-(1,2,3,4-tetrahydro-naphthalen-1-ylcarbamoyl)-benzoic acid], the 50% inhibitory concentration (IC50) amounted to 13.6 µM.

“5-(N-4-Butylphenyl-N-methyl-carbamoyl)-2-(4-(5,6-dichloro-1H-benzo[d]-imidazol-2-yl)benzamido)-benzoic acid [Example 44]”: the 50% inhibitory concentration (IC50) was 1.6 µM.

Consider `O=C(Nc1ccc(CCc2ccccc2)cc1)c1ccc(C(=O)O)c(NC(=O)c2sc3ccccc3c2Cl)c1` [Example 63, 2-(3-Chlorobenzo[b]-thiophene-2-carboxamido)-4-(4-phenethylphenyl-carbamoyl)benzoic acid], for which the 50% inhibitory concentration (IC50) is 130 µM.

As for `O=C(Nc1ccc(Oc2ccccc2)c(Cl)c1)c1ccc(C(=O)O)c(NC(=O)c2sc3ccccc3c2Cl)c1` [Example 73], the IC50 was 4.4 µM.

`O=C(O)c1ccc(C(=O)Nc2ccc(Cl)cc2)c(NC(=O)c2ccc(-c3ccccc3)s2)c1` [Example 25, 4-(4-Chlorophenyl-carbamoyl)-3-(5-phenyl-thiophene-2-carboxamido)-benzoic acid]: the 50% inhibitory concentration (IC50) is more than 150 µM.

`O=C(NC1Cc2ccccc2C1)c1ccc(NC(=O)c2sc3ccccc3c2Cl)c(C(=O)O)c1` [Example 159, 2-(3-Chlorobenzo[b]-thiophene-2-carboxamido)-5-(indan-2-ylcarbamoyl)benzoic acid]: the 50% inhibitory concentration (IC50) amounted to 6.5 µM.

As for `O=C(Nc1ccc(C(=O)N2CCC(Cc3ccc(Cl)cc3)CC2)cc1C(=O)O)c1cc2ccc(Cl)cc2s1` [Example 164, 2-(6-Chlorobenzo[b]-thiophene-2-carboxamido)-5-(4-(4-chlorobenzyl)piperidine-1-carbonyl)benzoic acid], the concentration for half-maximal inhibition (IC50) was found to be 3.5 µM.

As for `CC(C)CNC(=O)c1ccc(NC(=O)c2ccc(-c3nc4cc(Cl)c(Cl)cc4[nH]3)cc2)c(C(=O)O)c1` [Example 130], the IC50 amounted to 7.6 µM.

Turning to `O=C(O)c1ccc(-c2cn(-c3ccc(Cl)cc3)nn2)cc1NC(=O)c1sc2ccccc2c1Cl` [Example 257, 2-(3-Chlorobenzo[b]thiophene-2-carboxamido)-4-(1-(4-chlorophenyl)-1H-1,2,3-triazol-4-yl)benzoic acid], the half-maximal inhibitory concentration (IC50) worked out at 3.8 µM.

For the molecule `O=C(O)c1cc(NC(=O)c2sc3ccccc3c2Cl)ccc1C(=O)Nc1ccc(Cl)cc1` [Example 270, 5-(3-Chlorobenzo[b]thiophene-2-carboxamido)-2-(4-chlorophenyl-carbamoyl)benzoic acid], the 50% inhibitory concentration (IC50) turned out to be 22.9 µM.

In the case of `O=C(Nc1ccc(Cl)cc1)c1ccc(NC(=O)c2ccc(-c3nc4ccccc4[nH]3)cc2)c(C(=O)O)c1` [Example 36, 2-(4-(1H-Benzo[d]imidazol-2-yl)benzamido)-5-(4-chloro-phenylcarbamoyl)benzoic acid], the IC50 came out at 3.5 µM.

As to `O=C(O)c1ccc(C(=O)N2CCC(c3ccccc3)C2)cc1NC(=O)c1sc2ccccc2c1Cl` (stereo not shown) [Example 103], the half-maximal inhibitory concentration (IC50) was found to be 4.1 µM.

As for `Cn1c(-c2ccc(C(=O)Nc3cc(C(=O)Nc4ccc(Cl)cc4)c(OCC(=O)O)cc3C(=O)O)cc2)nc2cc(Cl)c(Cl)cc21` [Example 306], the half-inhibitory concentration (IC50) amounted to 0.5 µM.

As for `O=C(O)c1ccc(N2CC(c3ccc(Cl)cc3)CCC2=O)cc1NC(=O)c1sc2ccccc2c1Cl` (stereo not shown) [Example 286], the IC50 was 10.4 µM.

With `O=C(Nc1ccc(C(=O)O)c(NC(=O)c2sc3ccccc3c2Cl)c1)c1ccc(Cl)s1` [Example 274], the IC50 stood at 6.6 µM.

As to `O=C(O)c1ccc(-c2cn(Cc3ccc(Cl)s3)nn2)cc1NC(=O)c1sc2ccccc2c1Cl` [Example 262], the half-inhibitory concentration (IC50) came out at 7 µM.

Consider `O=C(Nc1ccc(C(=O)N2CCC(Cc3ccccc3)CC2)cc1C(=O)O)c1ccc(-c2ccc(Cl)cc2)s1` [Example 161, 5-(4-Benzylpiperidine-1-carbonyl)-2-(5-(4-chloro-phenyl)thiophene-2-carboxamido)benzoic acid], for which the half-maximal inhibitory concentration (IC50) came to 3 µM.

Turning to `O=C(O)c1ccc(-c2cn(Cc3c(F)cccc3F)nn2)cc1NC(=O)c1sc2ccccc2c1Cl` [Example 260], the half-maximal inhibitory concentration (IC50) came out at 11 µM.

As to `O=C(NCc1c(F)cccc1F)c1ccc(NC(=O)c2cc3ccc(Cl)cc3s2)c(C(=O)O)c1` [Example 165, 2-(6-Chlorobenzo[b]-thiophene-2-carboxamido)-5-(2,6-difluorobenzyl-carbamoyl)benzoic acid], the half-inhibitory concentration (IC50) was found to be 8.9 µM.

Regarding `O=C(O)c1ccc(C(=O)N2CCC(Oc3ccccc3)CC2)cc1NC(=O)c1sc2ccccc2c1Cl` [Example 28, 2-(3-Chlorobenzo[b]-thiophene-2-carboxamido)-4-(4-phenoxypiperidine-1-carbonyl)benzoic acid], the half-maximal inhibitory concentration (IC50) is 11.3 µM.

For `CCCCc1ccc(NC(=O)c2ccc(NC(=O)c3ccc(-c4nc5cc(Cl)c(Cl)cc5[nH]4)cc3)c(C(=O)O)c2)cc1` [Example 129], the IC50 was 1 µM.

Take `N#Cc1ccc(-c2ccc(C(=O)O)c(NC(=O)c3sc4ccccc4c3Cl)c2)cc1` [Example 255]: the half-inhibitory concentration (IC50) was determined as 3.1 µM.

`O=C(Nc1nccs1)c1ccc(C(=O)O)c(NC(=O)c2sc3ccccc3c2Cl)c1` [Example 52, 2-(3-Chlorobenzo[b]thiophene-2-carboxamido)-4-(thiazol-2-ylcarbamoyl)-benzoic acid]: the IC50 came to 15.4 µM.

Regarding `O=C(Nc1ccc(Cl)cc1)c1ccc(C(=O)O)c(NC(=O)c2sc3cc(Cl)ccc3c2Cl)c1` [Example 18, 4-(4-Chlorophenyl-carbamoyl)-2-(3,6-dichloro-benzo[b]thiophene-2-carboxamido)benzoic acid], the IC50 turned out to be 8.3 µM.

On to `COc1ccc(-c2ccc(C(=O)O)c(NC(=O)c3sc4ccccc4c3Cl)c2)cc1` [Example 249], for which the concentration for half-maximal inhibition (IC50) was 2.8 µM.

For `O=C(O)c1cc(C(=O)N2CCC(c3c(Cl)cccc3Cl)CC2)ccc1NC(=O)c1sc2ccccc2c1Cl` [Example 35, 2-(3-Chlorobenzo[b]-thiophene-2-carboxamido)-5-(4-(2,6-dichlorophenyl)-piperidine-1-carbonyl)benzoic acid], the 50% inhibitory concentration (IC50) was determined as 3.2 µM.

For `O=C(O)c1ccc(N2CC(c3ccc(Cl)cc3)CC2=O)cc1NC(=O)c1sc2ccccc2c1Cl` (stereo not shown) [Example 282], the IC50 turned out to be 11.3 µM.
